Experimental data: US11109593B2, “Isoxazolin-5-one derivative and herbicide containing same as active ingredient” (HOKKO CHEMICAL INDUSTRY CO., LTD., priority 2017, dated 2021)

Columns and labels:
Type in all cases: in vivo
Chenopodium album [1] = assay: Test Example 3: herbicidal effect test by treatment of dry field farming soil (one day after seeding); details: 120 g/10a active ingredient, evaluated 14 days after treatment
Procedure, shortened: (§1)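 Pre-emergence soil treatment: alluvial dry-field soil, 20 seeds per species mixed into top 1 cm, emulsion diluted in water sprayed one day after seeding at 100 L per 10 ares (120 g active ingredient per 10 ares). Duplicate pots; herbicidal rate (%) from dry weight vs untreated at 14 days.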

southern crabgrass [2] = assay: as above; details: 120 g/10a active ingredient, evaluated 14 days after treatment
Procedure, shortened: as §1

Amaranthus viridis [3] = assay: as above; details: 120 g/10a active ingredient, evaluated 14 days after treatment
Procedure, shortened: as §1

Echinochloa crus-galli [4] = assay: as above; details: 120 g/10a active ingredient, evaluated 14 days after treatment
Procedure, shortened: as §1

Chenopodium album [5] = assay: Test Example 4: herbicidal effect test by treatment of leave and stem in dry field farming (seven days after seeding); details: 120 g/10a active ingredient; emulsion sprayed seven days after seeding; evaluated 14 days after treatment
Procedure, shortened: (§2)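 Duplicate pots were scored 14 days post-spray by dry weight, herbicidal rate = {1 − treated/untreated average dry weight} × 100. The water-diluted emulsion, equivalent to 120 g active ingredient per 10 ares in 100 L, was applied seven days after sowing 20 seeds each into the upper 1 cm of alluvial soil.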

southern crabgrass [6] = assay: as above; details: 120 g/10a active ingredient; emulsion sprayed seven days after seeding; evaluated 14 days after treatment
Procedure, shortened: as §2

Amaranthus viridis [7] = assay: as above; details: 120 g/10a active ingredient; emulsion sprayed seven days after seeding; evaluated 14 days after treatment
Procedure, shortened: as §2

Echinochloa crus-galli [8] = assay: as above; details: 120 g/10a active ingredient; emulsion sprayed seven days after seeding; evaluated 14 days after treatment
Procedure, shortened: as §2

[9] = system: broad leaf weeds (Lindernia pyxidaria and Monochoria vaginalis); assay: Test Example 1: herbicidal effect test by treatment of rice paddy soil (immediately after seeding); details: 120 g/10a active ingredient, dry weight vs untreated area, 14 days after treatment
Procedure, shortened: (§3)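 Puddled, fertilized (N:P:K=17:17:17) paddy soil in Wagner pots; seeds sown 0–1 cm deep, flooded to about 3 cm. Emulsifiable formulations diluted in water and dropped into the water immediately after seeding at 120 g active ingredient per 10 ares; greenhouse. Herbicidal rate from dry weight vs untreated at 14 days.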

Scirpus juncoides [10] = assay: as above; details: 120 g/10a active ingredient, dry weight vs untreated area, 14 days after treatment
Procedure, shortened: as §3

Echinochloa crus-galli [11] = assay: as above; details: 120 g/10a active ingredient, dry weight vs untreated area, 14 days after treatment
Procedure, shortened: as §3

[12] = system: broad leaf weeds (Lindernia pyxidaria and Monochoria vaginalis); assay: Test Example 2: herbicidal effect test by treatment during growing period in paddy rice cultivation (seven days after seeding); details: 120 g/10a active ingredient, assessed 14 days after treatment, dry weight vs untreated area
Procedure, shortened: (§4)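 Paddy soil in Wagner pots with compound fertilizer, puddled; 30 seeds per species sown at 0–1 cm, flooded ~3 cm, greenhouse. Seven days after seeding, water-diluted emulsions were dropped into the water at 120 g active ingredient per 10 ares. Duplicate pots; herbicidal rate from dry weight versus untreated, 14 days after treatment.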

Scirpus juncoides [13] = assay: as above; details: 120 g/10a active ingredient, assessed 14 days after treatment, dry weight vs untreated area
Procedure, shortened: as §4

Echinochloa crus-galli [14] = assay: as above; details: 120 g/10a active ingredient, assessed 14 days after treatment, dry weight vs untreated area
Procedure, shortened: as §4

SMILES	herbicidal rate, Chenopodium album (Chenopodium album [1]) [%]	herbicidal rate, southern crabgrass (southern crabgrass [2]) [%]	herbicidal rate, Amaranthus viridis (Amaranthus viridis [3]) [%]	herbicidal rate, Echinochloa crus-galli (Echinochloa crus-galli [4]) [%]	herbicidal effect (herbicidal rate), Chenopodium album (Chenopodium album [5]) [%]	herbicidal effect (herbicidal rate), southern crabgrass (southern crabgrass [6]) [%]	herbicidal effect (herbicidal rate), Amaranthus viridis (Amaranthus viridis [7]) [%]	herbicidal effect (herbicidal rate), Echinochloa crus-galli (Echinochloa crus-galli [8]) [%]	Herbicidal rate (%) Lindernia pyxidaria [9] [%]	Herbicidal rate (%) Monochoria vaginalis [9] [%]	Herbicidal rate (%) Scirpus juncoides (Scirpus juncoides [10]) [%]	Herbicidal rate (%) Echinochloa crus-galli (Echinochloa crus-galli [11]) [%]	Herbicidal rate (%) Lindernia pyxidaria [12] [%]	Herbicidal rate (%) Monochoria vaginalis [12] [%]	Herbicidal rate (%) Scirpus juncoides (Scirpus juncoides [13]) [%]	Herbicidal rate (%) Echinochloa crus-galli (Echinochloa crus-galli [14]) [%]
Cc1c(Cc2ccccc2N(S(=O)(=O)C(F)(F)F)S(=O)(=O)C(F)(F)F)c(=O)on1CCOCC(C)C [Compound 1-1000]	40	80	40	60	0	40	40	60	80	90	100	100	40	70	90	90
CCc1c(Cc2ccccc2NS(=O)(=O)C(F)(F)F)c(=O)on1C(C)C [Compound 1-63]	40	90	40	90	60	60	40	90	100	100	100	90	80	90	90	80
Cc1c(Cc2ccccc2NS(=O)(=O)C(F)(F)F)c(=O)on1CC(C)c1ccccc1 (stereo not shown) [Compound 1-219]	40	80	90	90	0	60	40	90	90	80	90	100	40	70	90	90
CSCCn1oc(=O)c(Cc2ccccc2N(C(=O)C2CC2)S(=O)(=O)C(F)(F)F)c1C [Compound 1-413]	90	90	90	90	40	90	40	90	90	90	90	90	90	90	90	90
CCC(C)Cn1oc(=O)c(Cc2ccccc2N(C(=O)OC)S(=O)(=O)C(F)(F)F)c1C (stereo not shown) [Compound 1-583]	50	90	60	100	50	60	50	80	90	90	90	100	80	90	90	100
Cc1c(Cc2ccccc2N(C(=O)Cc2ccccc2)S(=O)(=O)C(F)(F)F)c(=O)on1C(C)(C)C [Compound 1-503]	90	90	90	90	40	90	40	90	90	90	90	90	90	90	90	90
Cc1c(Cc2ccccc2N(C(=O)OCC(C)C)S(=O)(=O)C(F)(F)F)c(=O)on1C [Compound 1-666]	40	100	0	90	50	70	40	90	80	100	90	100	90	90	90	100
CCCC(C)n1oc(=O)c(Cc2ccccc2N(C(=O)C2CC2)S(=O)(=O)C(F)(F)F)c1C (stereo not shown) [Compound 1-408]	60	100	80	100	70	90	40	90	80	80	90	100	70	60	90	90
CCS(=O)(=O)N(c1ccccc1Cc1c(C)n(CCSC)oc1=O)S(=O)(=O)C(F)(F)F [Compound 1-916]	90	90	90	90	40	90	40	90	90	90	90	90	90	90	90	90
CSCCn1oc(=O)c(Cc2ccccc2N(C(=O)OC(C)C)S(=O)(=O)C(F)(F)F)c1C [Compound 1-652]	90	90	90	90	40	90	40	90	90	90	90	90	90	90	90	90
